# Results from patent US10798943B2, “Use of 6-anilino purine derivatives to improve heat stress tolerance of rice seedlings” (SYNGENTA PARTICIPATIONS AG, priority 2016, dated 2020).
# Experiments:
# Format in all cases: in vivo
# [1] = system: rice seedlings (hybrid rice variety ADT45) under heat stress; test: Transplant shock stress, visual assessment of damage severity, Kumbakonam trial; details: for Transplanting shock stress (8th day) / Transplanting shock stress (12th day) / Transplanting shock stress (4th day): Kumbakonam
# From the text: (§1) Trials were setup in two locations in India to test the effect of compounds of formula I on tolerance of rice seedlings to heat stress during transplantation.
# (§2) For each trial, hybrid rice variety ADT45 was sown in seedling boxes. A compound of formula (Ia) was applied by foliar spray in the form of an EC formulation, at various dose rates and seedling growth stages as shown in Table 1.
# (§3) Transplanting took place at the […] growth stage. Transplant shock was used as an indicator of tolerance to heat stress, and was measured via visual assessment of damage severity on a scale of 0% (no damage) to 100% (dead plant); observations such as yellowing and leaf tip burning are indicators of damage. Transplant shock was also assessed by measuring NVDI values using a Green Seeker™ crop sensor, which measures the percentage green area. A low transplant shock stress rating and high NVDI rating indicate improved tolerance to transplant shock stress.
# (§4) The trial was carried out between 7 May 2015 and 15 Jun. 2015, with transplanting on 29 May 2015. The mean maximum daily temperature during the trial period was 37.3° C., and mean minimum daily temperature during the trial period was 24.9° C. The mean temperature during the entire trial period was 31.1° C.
# [2] = system: rice seedlings (hybrid rice variety ADT45) under heat stress; test: NVDI by Green Seeker crop sensor, Kumbakonam trial; design: key: NVDI as percentage green area (Green Seeker)
# From the text: as §1, §2, §3, §4
# [3] = system: rice seedlings (hybrid rice variety ADT45); test: Phytotoxicity assessments at Kumbakonam trial; details: for Greenness at 3.2 leaf / Seedling height at 3.2 leaf / Seedling injury / Time to 3.2 leaf / Uniformity of foliage growth at 3.2 leaf / Uniformity of greening at 3.2 leaf / Whiteness of root mat at 3.2 leaf: Kumbakonam
# Description: For each trial, hybrid rice variety ADT45 was sown in seedling boxes. A compound of formula (Ia) was applied by foliar spray in the form of an EC formulation, at various dose rates and seedling growth stages as shown in Table 1. [table] […] The trial was carried out between 7 May 2015 and 15 Jun. 2015, with transplanting on 29 May 2015. The mean maximum daily temperature during the trial period was 37.3° C., and mean minimum daily temperature during the trial period was 24.9° C. The mean temperature during the entire trial period was 31.1° C.
# [4] = treatment 2: 5 g ai/ha, Pigeon-breast
# [5] = treatment 3: 10 g ai/ha, Pigeon-breast
# [6] = treatment 4: 20 g ai/ha, Pigeon-breast
# [7] = treatment 6: 10 g ai/ha, 2-leaf
# [8] = treatment 7: 20 g ai/ha, 2-leaf
# [9] = treatment 9: 10 g ai/ha, 3-leaf
# [10] = treatment 10: 20 g ai/ha, 3-leaf
structure (smiles),measurement,setting,value
COc1cccc(Nc2nc(F)nc3[nH]cnc23)c1 [Formula Ia],"Tolerance to heat stress / transplant shock stress, comparison of treatments","[1]; Kumbakonam trial, treatments 5 and 6 (2-leaf growth stage, 5-10 g ai/ha)",giving the best results
same,Transplanting shock stress (8th day),[1]; [4],35%
same,Transplanting shock stress (12th day),[1]; [4],15%
same,Transplanting shock stress (4th day),"[1]; treatment 2: 5 g ai/ha, Pigeon-breast, scale 0% no damage to 100% dead plant",32%
same,Transplanting shock stress (4th day),[1]; [5],38%
same,Transplanting shock stress (8th day),[1]; [5],32%
same,Transplanting shock stress (12th day),[1]; [5],17%
same,Transplanting shock stress (4th day),[1]; [6],30%
same,Transplanting shock stress (8th day),[1]; [6],22%
same,Transplanting shock stress (12th day),[1]; [6],13%
same,Transplanting shock stress (4th day),"[1]; treatment 5: 5 g ai/ha, 2-leaf",15%
same,Transplanting shock stress (8th day),"[1]; treatment 5: 5 g ai/ha, 2-leaf",13%
same,Transplanting shock stress (12th day),"[1]; treatment 5: 5 g ai/ha, 2-leaf",7%
same,Transplanting shock stress (4th day),[1]; [7],30%
same,Transplanting shock stress (8th day),[1]; [7],22%
same,Transplanting shock stress (12th day),[1]; [7],10%
same,Transplanting shock stress (4th day),[1]; [8],35%
same,Transplanting shock stress (8th day),[1]; [8],37%
same,Transplanting shock stress (12th day),[1]; [8],22%
same,Transplanting shock stress (4th day),"[1]; treatment 8: 5 g ai/ha, 3-leaf",27%
same,Transplanting shock stress (8th day),"[1]; treatment 8: 5 g ai/ha, 3-leaf",32%
same,Transplanting shock stress (12th day),"[1]; treatment 8: 5 g ai/ha, 3-leaf",17%
same,Transplanting shock stress (4th day),[1]; [9],42%
same,Transplanting shock stress (8th day),[1]; [9],27%
same,Transplanting shock stress (12th day),[1]; [9],15%
same,Transplanting shock stress (4th day),[1]; [10],45%
same,Transplanting shock stress (8th day),[1]; [10],37%
same,Transplanting shock stress (12th day),[1]; [10],25%
same,NVDI data (10 DAT),[2]; [4],12
same,NVDI data (15 DAT),[2]; [4],19
same,NVDI data (10 DAT),[2]; [5],6
same,NVDI data (15 DAT),[2]; [5],19
same,NVDI data (10 DAT),[2]; [6],10
same,NVDI data (15 DAT),[2]; [6],20
same,NVDI data (10 DAT),"[2]; treatment 5: 5 g ai/ha, 2-leaf",13
same,NVDI data (15 DAT),"[2]; treatment 5: 5 g ai/ha, 2-leaf",22
same,NVDI data (10 DAT),[2]; [7],12
same,NVDI data (15 DAT),[2]; [7],20
same,NVDI data (10 DAT),[2]; [8],11
same,NVDI data (15 DAT),[2]; [8],19
same,NVDI data (10 DAT),"[2]; treatment 8: 5 g ai/ha, 3-leaf",10
same,NVDI data (15 DAT),"[2]; treatment 8: 5 g ai/ha, 3-leaf",19
same,NVDI data (10 DAT),[2]; [9],15
same,NVDI data (15 DAT),[2]; [9],18
same,NVDI data (10 DAT),[2]; [10],15
same,NVDI data (15 DAT),[2]; [10],20
same,Phytotoxic effects to the rice seedlings (summary),"[3]; Kumbakonam trial, some marginal effects at the highest dose rate",did not cause any phytotoxic effects
same,Greenness at 3.2 leaf,[3]; [4],3 unit
same,Seedling height at 3.2 leaf,[3]; [4],14 cm
same,Seedling injury,[3]; [4],0%
same,Time to 3.2 leaf,[3]; [4],14 days
same,Uniformity of foliage growth at 3.2 leaf,[3]; [4],90%
same,Uniformity of greening at 3.2 leaf,[3]; [4],95%
same,Whiteness of root mat at 3.2 leaf,[3]; [4],90%
same,Greenness at 3.2 leaf,[3]; [5],3 unit
same,Seedling height at 3.2 leaf,[3]; [5],13 cm
same,Seedling injury,[3]; [5],0%
same,Time to 3.2 leaf,[3]; [5],14 days
same,Uniformity of foliage growth at 3.2 leaf,[3]; [5],90%
same,Uniformity of greening at 3.2 leaf,[3]; [5],95%
same,Whiteness of root mat at 3.2 leaf,[3]; [5],90%
same,Greenness at 3.2 leaf,[3]; [6],3 unit
same,Seedling height at 3.2 leaf,[3]; [6],13 cm
same,Seedling injury,[3]; [6],0%
same,Time to 3.2 leaf,[3]; [6],14 days
same,Uniformity of foliage growth at 3.2 leaf,[3]; [6],90%
same,Uniformity of greening at 3.2 leaf,[3]; [6],95%
same,Whiteness of root mat at 3.2 leaf,[3]; [6],90%
same,Greenness at 3.2 leaf,"[3]; treatment 5: 5 g ai/ha, 2-leaf",3 unit
same,Seedling height at 3.2 leaf,"[3]; treatment 5: 5 g ai/ha, 2-leaf",14 cm
same,Seedling injury,"[3]; treatment 5: 5 g ai/ha, 2-leaf",0%
same,Time to 3.2 leaf,"[3]; treatment 5: 5 g ai/ha, 2-leaf",13 days
same,Uniformity of foliage growth at 3.2 leaf,"[3]; treatment 5: 5 g ai/ha, 2-leaf",95%
same,Uniformity of greening at 3.2 leaf,"[3]; treatment 5: 5 g ai/ha, 2-leaf",95%
same,Whiteness of root mat at 3.2 leaf,"[3]; treatment 5: 5 g ai/ha, 2-leaf",85%
same,Greenness at 3.2 leaf,[3]; [7],2.8 unit
same,Seedling height at 3.2 leaf,[3]; [7],14 cm
same,Seedling injury,[3]; [7],3%
same,Time to 3.2 leaf,[3]; [7],13 days
same,Uniformity of foliage growth at 3.2 leaf,[3]; [7],90%
same,Uniformity of greening at 3.2 leaf,[3]; [7],90%
same,Whiteness of root mat at 3.2 leaf,[3]; [7],85%
same,Greenness at 3.2 leaf,[3]; [8],2.5 unit
same,Seedling height at 3.2 leaf,[3]; [8],14 cm
same,Seedling injury,[3]; [8],8%
same,Time to 3.2 leaf,[3]; [8],13 days
same,Uniformity of foliage growth at 3.2 leaf,[3]; [8],90%
same,Uniformity of greening at 3.2 leaf,[3]; [8],85%
same,Whiteness of root mat at 3.2 leaf,[3]; [8],85%
same,Greenness at 3.2 leaf,"[3]; treatment 8: 5 g ai/ha, 3-leaf",3 unit
same,Seedling height at 3.2 leaf,"[3]; treatment 8: 5 g ai/ha, 3-leaf",14 cm
same,Seedling injury,"[3]; treatment 8: 5 g ai/ha, 3-leaf",0%
same,Time to 3.2 leaf,"[3]; treatment 8: 5 g ai/ha, 3-leaf",13 days
same,Uniformity of foliage growth at 3.2 leaf,"[3]; treatment 8: 5 g ai/ha, 3-leaf",90%
same,Uniformity of greening at 3.2 leaf,"[3]; treatment 8: 5 g ai/ha, 3-leaf",95%
same,Whiteness of root mat at 3.2 leaf,"[3]; treatment 8: 5 g ai/ha, 3-leaf",90%
same,Greenness at 3.2 leaf,[3]; [9],3 unit
same,Seedling height at 3.2 leaf,[3]; [9],14 cm
same,Seedling injury,[3]; [9],0%
same,Time to 3.2 leaf,[3]; [9],13 days
same,Uniformity of foliage growth at 3.2 leaf,[3]; [9],90%
same,Uniformity of greening at 3.2 leaf,[3]; [9],95%
same,Whiteness of root mat at 3.2 leaf,[3]; [9],90%
same,Greenness at 3.2 leaf,[3]; [10],2.5 unit
same,Seedling height at 3.2 leaf,[3]; [10],14 cm
same,Seedling injury,[3]; [10],15%
same,Time to 3.2 leaf,[3]; [10],13 days
same,Uniformity of foliage growth at 3.2 leaf,[3]; [10],90%
same,Uniformity of greening at 3.2 leaf,[3]; [10],85%
same,Whiteness of root mat at 3.2 leaf,[3]; [10],85%
